Data as given in US9078899B2, “Pyrazolyl-based carboxamides II” (Grünenthal GmbH, priority 2013, dated 2015).

Experiments:
CRAC channel = target: T1, CRAC channel (Homo sapiens, UniProt Q96D31); assay: HEK Calcium Influx Assay (FLIPR); format: cell-based; settings: 10 μM; endogenous SOC in HEK293 cells, thapsigargin store depletion, Ca2+ signal 9.5-10 min post-administration; read-out: % inhib.[@ 10 μM] FLIPR
T1 construct: host or cells: HEK293
Procedure: The effect of compounds of the invention on intracellular [Ca^2+] was tested in the HEK293 cell line (ECACC).
HEK293 cells were cultured in DMEM/F12/Glutamax (Gibco) containing 10% FCS (Gibco), and maintained at 37° C., 5% CO2. Cell were split twice a week [3*10^6 (Mon-Thu) and 1*10^6 (Thu-Mon) cells/50 ml medium in T-175 ZK culture flasks, respectively]. Twenty four hours pre-experiment, cells were seeded on 96 well plates (Poly-D-Lysine 96well Black/Clear Plate, BD Biocoat REF 356640) at a density of 40,000 cells/well in DMEM/F12 (Gibco) containing 10% FCS (Gibco), and maintained at 37° C., 5% CO2.
Prior to store-depletion, cell culture medium was removed and cells were loaded with the a Calcium-sensitive fluorescent dye comprised within the Calcium-4-assay kit (Molecular Devices) in nominally Ca^2+-free HBS buffer (140 mM NaCl, 4 mM KCl, 0.2 mM MgCl2, 11 mM D-glucose, and 10 mM HEPES, pH 7.4) according to manufacturer's instruction for 60 min at 37° C., 5% CO2.
Passive depletion of intracellular Ca^2+-stores was then triggered by employing the SERCA inhibitor thapsigargin (2 μM final) for 10 min in the dark (RT). To prevent immediate Ca^2+-entry via the activated Store-operated channels (SOCs), cells were maintained in Ca^2+-free HBS buffer comprising 100 μM EGTA during store-depletion.
Intracellular changes in [Ca^2+] were subsequently monitored with the FLIPR device (Molecular Devices). In brief, baseline imaging post-store depletion was allowed for 1 min before adjusting the extracellular buffer to 3 mM CaCl2. Increases in intracellular [Ca^2+] due to pre-activated SOC channels were monitored for 15 min until intracellular Ca^2+ levels had declined into a steady-state. Finally, compounds were administered and Ca^2+ signals were recorded for additional 10 min.
Inhibition of endogenous SOC in HEK293 cells was quantified employing the average Ca^2+ signal measured from 9.5-10 min post-administration. Zero percent inhibition (MAX) was defined as the Ca^2+ signal recorded from wells to which DMSO-only had been added instead of compound. Hundred percent inhibition (MIN) was defined as the signal obtained from wells in which cells haven't been treated with TG prior to Ca^2+ addition and to which DMSO-only had been added instead of compound. For routine IC50 determinations of compounds, 8 concentrations of a serial dilution (1:3.16) were tested, starting off from 10 μM. Reliable IC50's could consequently be determined only, if they were at least sub 2.5-3 μM.

[1] = tested on: Interleukin-2 (IL-2) production/release; assay: Jurkat IL-2 Production Assay; format: cell-based; settings: Homo sapiens; Jurkat T cells clone E6-1, 15 μg/ml PHA for 22 hours, IL-2 in supernatant
Procedure: Jurkat IL-2 Production Assay
The effect of compounds of the invention on Interleukin-2 (IL-2) production/release was tested in the Jurkat T cell line (ECACC) clone E6-1.
Jurkat T cells were cultured in DMEM/F12/Glutamax (Gibco) containing 10% FCS (Gibco), and maintained at 37° C., 5% CO2. Cell were split twice a week [5*10^6 (Mon-Thu) and 1*10^7 (Thu-Mon) cells/50 ml medium in T-175 ZK culture flasks, respectively].
Prior to experiment, cells were seeded on 96 well plates (Cellstar 96 Well; Cat No. 655180, Greiner bio-one) at a density of 5*10^5 cells/well in DMEM/F12/Glutamax (Gibco) containing 10% FCS (Gibco), and incubated for 60 min at 37° C., 5% CO2. Subsequently, compounds were added and cells were allowed to incubate for 30 min at 37° C., 5% CO2. Cells were then stimulated with 15 μg/ml Phytohemagglutinin (PHA; Sigma) for 22 hours at 37° C., 5% CO2.
Before sampling of the supernatants, cells were spun down (200*g/5 min/RT). The amount of IL-2 released into the supernatant was quantified with the human IL-2 AlphaLisa kit (Perkin Elmer) according to manufacturer's instructions. Luminescence proximity measurements were carried out in the Synergy H4 reader (BioTek) employing the fluorescence setting of the reader (ex: 680/30 nm; em: 620/40 nm).
Inhibition of IL-Production/Release in/from Jurkat T Cells was Quantified as Follows:
Zero percent inhibition (MAX) was defined as the [IL-2] determined in supernatants derived from cells to which PHA & DMSO-only had been added instead of compound. Hundred percent inhibition (MIN) was defined as the [IL-2] determined in supernatants derived from cells that had been pre-treated with 1 μM CyclosporineA (Sigma) before the addition of 15 μg/ml PHA.
For routine IC50 determinations of compounds, 8 concentrations of a serial dilution (1:3.16) were tested, starting off from 10 μM.

T1 sequence (Q96D31 whole entry): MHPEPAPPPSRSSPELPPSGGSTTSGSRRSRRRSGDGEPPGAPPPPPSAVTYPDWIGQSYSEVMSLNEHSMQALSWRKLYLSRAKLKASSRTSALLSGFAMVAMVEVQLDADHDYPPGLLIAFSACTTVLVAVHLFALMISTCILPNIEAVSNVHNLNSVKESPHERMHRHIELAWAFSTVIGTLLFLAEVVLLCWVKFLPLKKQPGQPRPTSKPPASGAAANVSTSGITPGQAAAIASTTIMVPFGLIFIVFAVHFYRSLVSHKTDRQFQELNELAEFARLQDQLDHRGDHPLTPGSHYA

Compound	inhibition at 10 µM (CRAC channel) [%]	IC50 [1] [µM]
Cn1nc(C(=O)Nc2c(F)cncc2F)cc1-c1c(F)cccc1C(F)(F)F [Example 49, N-(3,5-Difluoro-pyridin-4-yl)-5-[2-fluoro-6-(trifluoromethyl)-phenyl]-1-methyl-1H-pyrazole-3-carboxylic acid amide]	> 70	1 to 5
CCOc1ccc(OC)cc1-c1cc(C(=O)Nc2c(F)cccc2F)nn1C [Example 4, N-(2,6-Difluoro-phenyl)-5-(2-ethoxy-5-methoxy-phenyl)-1-methyl-1H-pyrazole-3-carboxylic acid amide]	> 70	0.5 to 1
COc1ccc(OC(F)(F)F)c(-c2cc(C(=O)Nc3c(F)cccc3F)nn2C)c1 [Example 8, N-(2,6-Difluoro-phenyl)-5-[5-methoxy-2-(trifluoromethyloxy)-phenyl]-1-methyl-1H-pyrazole-3-carboxylic acid amide]	> 70	< 0.5
COc1ccc(OC)c(-c2cc(C(=O)Nc3ccncc3C#N)nn2C)c1 [Example 15, N-(3-Cyano-pyridin-4-yl)-5-(2,5-dimethoxyphenyl)-1-methyl-1H-pyrazole-3-carboxylic acid amide]	50 to 70	1 to 5
Cn1nc(C(=O)Nc2c(F)cccc2F)cc1-c1ccc(OC(F)(F)F)cc1Cl [Example 12, 5-[2-Chloro-4-(trifluoromethyloxy)-phenyl]-N-(2,6-difluoro-phenyl)-1-methyl-1H-pyrazole-3-carboxylic acid amide]	> 70	0.5 to 1
COc1ccc(OC)c(-c2c(Cl)c(C(=O)Nc3ccncc3F)nn2C)c1 [Example 40, 4-Chloro-5-(2,5-dimethoxyphenyl)-N-(3-fluoro-pyridin-4-yl)-1-methyl-1H-pyrazole-3-carboxylic acid amide]	> 70	1 to 5
COc1ccc(OC)c(-c2cc(C(=O)Nc3c(F)cccc3F)nn2C)c1 [Example 21, N-(2,6-Difluoro-phenyl)-5-(2,5-dimethoxyphenyl)-1-methyl-1H-pyrazole-3-carboxylic acid amide]	> 70	< 0.5
COc1cc(S(C)(=O)=O)ccc1-c1cc(C(=O)Nc2c(F)cccc2F)nn1C [Example 66, N-(2,6-Difluoro-phenyl)-5-(2-methoxy-4-methylsulfonyl-phenyl)-1-methyl-1H-pyrazole-3-carboxylic acid amide]	< 50	1 to 5
COc1ccc(OC)c(-c2cc(C(=O)Nc3cnc(C)cc3C)nn2C)c1 [Example 17, 5-(2,5-Dimethoxyphenyl)-N-(4,6-dimethyl-pyridin-3-yl)-1-methyl-1H-pyrazole-3-carboxylic acid amide]	50 to 70	1 to 5
COc1cc(F)c(NC(=O)c2cc(-c3cc(OC)ccc3OC)n(C)n2)c(F)c1 [Example 31, N-(2,6-Difluoro-4-methoxy-phenyl)-5-(2,5-dimethoxyphenyl)-1-methyl-1H-pyrazole-3-carboxylic acid amide]	> 70	< 0.5
COc1ccc(OC)c(-c2cc(C(=O)Nc3c(F)cccc3Cl)nn2C)c1 [Example 35, N-(2-Chloro-6-fluoro-phenyl)-5-(2,5-dimethoxyphenyl)-1-methyl-1H-pyrazole-3-carboxylic acid amide]	> 70	< 0.5
COc1ccc(OC)c(-c2cc(C(=O)Nc3ccncc3C)nn2C)c1 [Example 20, 5-(2,5-Dimethoxyphenyl)-1-methyl-N-(3-methyl-pyridin-4-yl)-1H-pyrazole-3-carboxylic acid amide]	> 70	0.5 to 1
COc1ccc(F)cc1-c1cc(C(=O)Nc2c(F)cccc2F)nn1C [Example 10, N-(2,6-Difluoro-phenyl)-5-(5-fluoro-2-methoxy-phenyl)-1-methyl-1H-pyrazole-3-carboxylic acid amide]	> 70	0.5 to 1
